What was measured:
Type in all cases: in vivo
[1] = test system: barnyardgrass (Echinochloa crus-galli); assay: Test A preemergence soil spray, visual injury rating 0-100; conditions: 10 days
Method in brief: (§1)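 Preemergence directed soil spray or postemergence spray (2-10 cm, 1-2 leaf); loam/sand mix; compound in non-phytotoxic solvent + surfactant. Greenhouse, 10 d. Visual injury vs untreated, 0 = none, 100 = complete control.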

[2] = test system: blackgrass (Alopecurus myosuroides); assay: as above; conditions: 10 days
Method in brief: as §1

corn (Zea mays) [3] = assay: as above; conditions: 10 days
Method in brief: as §1

[4] = test system: green foxtail (Setaria viridis); assay: as above; conditions: 10 days
Method in brief: as §1

kochia (Bassia scoparia) [5] = assay: as above; conditions: 10 days
Method in brief: as §1

[6] = test system: oat, wild (wild oat, Avena fatua); assay: as above; conditions: 10 days
Method in brief: as §1

[7] = test system: palmer (palmer amaranth, palmer pigweed, Amaranthus palmeri); assay: as above; conditions: 10 days
Method in brief: as §1

[8] = test system: ragweed (common ragweed, Ambrosia artemisiifolia); assay: as above; conditions: 10 days
Method in brief: as §1

[9] = test system: ryegrass, Italian (italian ryegrass, Lolium multiflorum); assay: as above; conditions: 10 days
Method in brief: as §1

soybean (Glycine max) [10] = assay: as above; conditions: 10 days
Method in brief: as §1

[11] = test system: wheat (Triticum aestivum); assay: as above; conditions: 10 days
Method in brief: as §1

[12] = test system: barnyardgrass (Echinochloa crus-galli); assay: Test A postemergence application, visual injury rating 0-100
Method in brief: as §1

[13] = test system: blackgrass (Alopecurus myosuroides); assay: as above
Method in brief: as §1

corn (Zea mays) [14] = assay: as above
Method in brief: as §1

[15] = test system: galium (catchweed bedstraw, Galium aparine); assay: as above
Method in brief: as §1

[16] = test system: green foxtail (Setaria viridis); assay: as above
Method in brief: as §1

[17] = test system: horseweed (Erigeron canadensis); assay: as above
Method in brief: as §1

kochia (Bassia scoparia) [18] = assay: as above
Method in brief: as §1

[19] = test system: oat, wild (wild oat, Avena fatua); assay: as above
Method in brief: as §1

[20] = test system: palmer (palmer amaranth, palmer pigweed, Amaranthus palmeri); assay: as above
Method in brief: as §1

[21] = test system: ragweed (common ragweed, Ambrosia artemisiifolia); assay: as above
Method in brief: as §1

[22] = test system: ryegrass, Italian (italian ryegrass, Lolium multiflorum); assay: as above
Method in brief: as §1

soybean (Glycine max) [23] = assay: as above
Method in brief: as §1

[24] = test system: wheat (Triticum aestivum); assay: as above
Method in brief: as §1

[25] = test system: barnyardgrass (Echinochloa crusgalli); assay: Test B flooded paddy test, visual plant response rating 0-100; conditions: 250 g ai/ha, Flood, applied to paddy water, evaluated after 13 days
Method in brief: (§2)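 In this flooded assay, 2-leaf seedlings received compound through the water layer, kept at 3 cm over the soil. Plants were held 13 days in a greenhouse and then visually compared with control pots.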

[26] = test system: ducksalad (Heteranthera limosa); assay: as above; conditions: 250 g ai/ha, Flood, applied to paddy water, evaluated after 13 days
Method in brief: as §2

rice (Oryza sativa) = assay: as above; conditions: 250 g ai/ha, Flood, applied to paddy water, evaluated after 13 days
Method in brief: as §2

[27] = test system: sedge, umbrella (small-flower umbrella sedge, Cyperus difformis); assay: as above; conditions: 250 g ai/ha, Flood, applied to paddy water, evaluated after 13 days
Method in brief: as §2

[28] = 62 g ai/ha, 0 = no effect, 100 = complete control
[29] = 62 g ai/ha, postemergence, 10 days, 0 = no effect, 100 = complete control
[30] = Postemergence, 16 g ai/ha, greenhouse 10 days, 0 no effect, 100 complete control

## CC1(C(=O)NC2CC=C(C(=O)NS(=O)(=O)c3ccccc3)C2)CN(c2cc(F)cc(F)c2)C(=O)O1 (racemic) [Compound 104]
[1]; 16 g ai/ha, 0 to 100 scale
  Barnyardgrass plant response rating: 0
[1]; [28]
  Barnyardgrass plant response rating (0-100): 20
[2]; 16 g ai/ha, 0 to 100 scale
  Blackgrass plant response rating: 0
[2]; [28]
  Blackgrass plant response rating (0-100): 0
Corn (Zea mays) [3]; 16 g ai/ha, 0 to 100 scale
  Corn plant response rating: 0
Corn (Zea mays) [3]; [28]
  Corn plant response rating (0-100): 0
[4]; 16 g ai/ha, 0 to 100 scale
  Foxtail, Green plant response rating: 0
[4]; [28]
  Foxtail, Green plant response rating (0-100): 30
Kochia (Bassia scoparia) [5]; 16 g ai/ha, 0 to 100 scale
  Kochia plant response rating: 0
Kochia (Bassia scoparia) [5]; [28]
  Kochia plant response rating (0-100): 50
[6]; 16 g ai/ha, 0 to 100 scale
  Oat, Wild plant response rating: 0
[6]; [28]
  Oat, Wild plant response rating (0-100): 0
[7]; 16 g ai/ha, 0 to 100 scale
  Pigweed, Palmer plant response rating: 0
[7]; [28]
  Pigweed, Palmer plant response rating (0-100): 30
[8]; 16 g ai/ha, 0 to 100 scale
  Ragweed plant response rating: 20
[8]; [28]
  Ragweed plant response rating (0-100): 20
[9]; 16 g ai/ha, 0 to 100 scale
  Ryegrass, Italian plant response rating: 0
[9]; [28]
  Ryegrass, Italian plant response rating (0-100): 20
Soybean (Glycine max) [10]; 16 g ai/ha, 0 to 100 scale
  Soybean plant response rating: 0
Soybean (Glycine max) [10]; [28]
  Soybean plant response rating (0-100): 0
[11]; 16 g ai/ha, 0 to 100 scale
  Wheat plant response rating: 0
[11]; [28]
  Wheat plant response rating (0-100): 20
[12]; [29]
  Barnyardgrass plant response rating (0-100): 100
[12]; [30]
  Barnyardgrass plant response rating (0 to 100 scale): 50
[13]; [29]
  Blackgrass plant response rating (0-100): 70
[13]; [30]
  Blackgrass plant response rating (0 to 100 scale): 0
Corn (Zea mays) [14]; [29]
  Corn plant response rating (0-100): 90
Corn (Zea mays) [14]; [30]
  Corn plant response rating (0 to 100 scale): 0
[15]; [29]
  Galium plant response rating (0-100): 70
[15]; [30]
  Galium plant response rating (0 to 100 scale): 30
[16]; [29]
  Foxtail, Green plant response rating (0-100): 90
[16]; [30]
  Foxtail, Green plant response rating (0 to 100 scale): 40
[17]; [29]
  Horseweed plant response rating (0-100): 30
[17]; [30]
  Horseweed plant response rating (0 to 100 scale): 0
Kochia (Bassia scoparia) [18]; [29]
  Kochia plant response rating (0-100): 90
Kochia (Bassia scoparia) [18]; [30]
  Kochia plant response rating (0 to 100 scale): 30
[19]; [29]
  Oat, Wild plant response rating (0-100): 30
[19]; [30]
  Oat, Wild plant response rating (0 to 100 scale): 0
[20]; [29]
  Pigweed, Palmer plant response rating (0-100): 90
[20]; [30]
  Pigweed, Palmer plant response rating (0 to 100 scale): 80
[21]; [29]
  Ragweed plant response rating (0-100): 60
[21]; [30]
  Ragweed plant response rating (0 to 100 scale): 40
[22]; [29]
  Ryegrass, Italian plant response rating (0-100): 70
[22]; [30]
  Ryegrass, Italian plant response rating (0 to 100 scale): 50
Soybean (Glycine max) [23]; [29]
  Soybean plant response rating (0-100): 60
Soybean (Glycine max) [23]; [30]
  Soybean plant response rating (0 to 100 scale): 20
[24]; [29]
  Wheat plant response rating (0-100): 90
[24]; [30]
  Wheat plant response rating (0 to 100 scale): 30
[25]
  Plant response rating, Barnyardgrass (0 to 100 scale, 0 is no effect and 100 is complete control): 0
[26]
  Plant response rating, Ducksalad (0 to 100 scale, 0 is no effect and 100 is complete control): 0
Rice (Oryza sativa)
  Plant response rating, Rice (0 to 100 scale, 0 is no effect and 100 is complete control): 0
[27]
  Plant response rating, Sedge, Umbrella (0 to 100 scale, 0 is no effect and 100 is complete control): 0
